In brackets after ≈: the same amount, converted by molar mass. Read-outs that look alike come from different tables or passages of the source.

In series [1] the test system is Microsporum canis (strain B68128). The series is described as follows: Test D.4.1: activity against M. canis in guinea-pigs after oral treatment for 7 consecutive days. Type of series: in vivo. Details: key to semi-quantitative lesion score (mean): lesion score 0–3.5 by severity and size of lesion. Particulars: oral 10 mg/kg once daily for 7 days. Here is the method:
The animals used in the tests described below were female Guinea pigs (Duncan-Hartley, Charles River, 200 g). These animals were kept in groups of 2 or 3 in cages of 56×33×20 cm^3. Food pellets (Carfil Quality) and water were available ad libitum in addition to a small daily amount of hay. Standard husbandry conditions were adopted: room temperature: 22° C., humidity level: 60% and a day-night cycle of 12 h.
For the preparation of inoculums, Microsporum canis (strain B68128) was grown on Sabouraud Dextrose Agar (SDA) plates for at least one week (7-10 days) before infection (27° C.). On the day of infection, spores were harvested by adding 4-5 ml sterile water on the plate and suspending the infectious material with a bend Pasteur pipette. From the recollected fluid, 10 μl was added to a KOVA counting chamber for determination of the number of spores in 1 square (average of several squares). If needed, additional dilutions (10× or 100×) were prepared. The average number of spores in one square×dilution×90.000=cfu/ml. An inoculum of 1×10^7 cfu/ml was prepared in a honey-water mixture (50%-50%).
In the tests described below, semi-quantitative lesion scores were given based on different clinical parameters. Scores between 0 and 3.5 were assigned based on the severity and size of the lesion. The criteria are listed in detail in Table 6.
The dorsum of the guinea pigs was shaved and further depilated for 3 minutes with Veet® creme before scarification with a steel brush. An inoculum of 10^6 cfu in 150 μl (75 mQ+75 μl honey) was applied to the wound using a micropipette with disposable tips. The animal was kept immobilized until the inoculum had completely dried. […]
vehicle: methocel 0.5%, Tween 80® (polysorbate 80), demineralised water reference compound: itraconazole at 6.25 mg/ml test compounds: prepared at 25 mg/ml, subsequently further diluted
Oral treatment (gavage 0.16 ml/100 g once daily) was started about 2 hours before infection and continued once daily for 7 consecutive days. The animals were weighed after 3 days of treatment to adjust for the dose.
Developments of lesions were evaluated following the semi-quantitative lesion scoring system (see Table 6) on days 3, 5, 7, 10, 12, 14, 17 and 20. The results are show in Table 7 (“DPI” means days post infection). Reported values in Table 7 are mean values.

Series [2] is described as follows: In vivo pharmacokinetic determinations (bioavailability) in guinea pigs. Particulars: guinea pig. The method, then: (§1) Three animals (mean weight 20±7 g for mice and 275±20 for Guinea pigs) were used per dose route, time point and formulation.
(§2) For the oral (PO) solution formulation, compound was dissolved in a 20% hydroxypropyl-β-cyclodextrin (HP-β-CD) solution at a final concentration of 1 mg/ml. HCl was added to facilitate dissolution. After dissolution, the pH was brought up to 3.7 with NaOH. Mannitol was added to make the solution isotonic. For the PO suspension formulation, compound was suspended in 0.5% methocel at a final concentration of 1 mg/ml. The formulations were stored at room temperature, protected from light and analysed quantitatively with LC-MS/MS on the day of preparation. Stability of the formulations was checked on the day of dosing.
(§3) The animals were dosed orally by gastric intubation at 10 ml/kg to obtain a final dose 10 mg/kg. Three dosed animals were sacrificed for blood sampling at 15 and 30 min, 1, 2, 3, 4, 6, 8 and 24 h after PO dose administration as a solution and at 30 min, 1, 2, 4, 6, 8 and 24 h after PO dose administration as a suspension.
(§4) Blood was collected by multiple sampling from a tail vein into Multivette® 600 K3E tubes (Sarstedt). Samples were placed immediately at approximately 4° C. and plasma was obtained following centrifugation at 4° C. for 10 minutes at approximately 1900×g. All samples were shielded from daylight and stored at ≦−18° C. prior to analysis.
(§5) Plasma samples were analysed for dosed compound using a qualified research LC-MS/MS method. The key analytical performance (linearity, upper and lower limit of quantification, accuracy and precision) of the method was reported together with the plasma concentrations.
(§6) A limited pharmacokinetic analysis was performed using WinNonlin™ Professional (Version 5.2.1). A non-compartmental analysis using the lin/log trapezoidal rule with lin/log interpolation was used for all data.

Another series is described as follows: in vivo. Details: species or system mice. Particulars: mouse, po. The method, then:
as §1, §2, §3, §4, §5, §6

Series [3] can be described thus: Solubility in buffer systems A-G. Type of series: physicochemical. Particulars: thermodynamic from solid. The method, then:
A magnetic stirring bar was added to the mixtures. […] If the compound was dissolved, the result was reported (twice the weighed amount of compound/ml). If the compound was not dissolved, 0.5 ml of extra solvent was added to the suspension. […] If the compound was dissolved, the result was reported (weighed amount of compound/ml). If the compound was not dissolved, 1 ml of extra solvent is pipetted into the suspension. The mixtures were shaken (Edmund Buhler SM25 175 SPM) at ambient temperature overnight and inspected afterwards. If the compound was dissolved, the result was reported (half the weighed amount of compound/ml). If the compound was not dissolved, the suspension was filtered over a filter disc. An aliquot of the filtrate was diluted with an appropriate solvent (0.1 N HCl/acetonitrile 1/1) and submitted for concentration measurement (mg/ml) using a generic UPLC method.

Series [4] deals with Sporothrix schenkii B62482. Put plainly: Antifungal activity in vitro (resazurin susceptibility screen), Inf. A. The format is cell-based. Particulars: Sporothrix, B62482, Sporothrix schenkii B62482; 27 °C, 4 days, resa time 24 hours. The gist of the method:
(§7)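 Each isolate, diluted 1/1000 from cryostock to give 10^3 cfu/well, is exposed to serially diluted compound (max 64 μM) in RPMI-1640 supplemented with glutamine and glucose, MOPS-buffered at pH 7.0. Plates incubate 24 h at 37° C (yeasts) up to ≥1 week at 27° C (dermatophytes), then resazurin fluorescence is scored.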
For orientation: Alamar Blue is a resazurin reagent that responds to reducing activity.

Series [5] concerns Cryptococcus neoformans B66663. Put plainly: Antifungal activity in vitro (resazurin susceptibility screen), Inf. F. Type of series: cell-based. Particulars: Cryptococcus neoformans, B66663, Cryptococcus neoformans B66663; 37 °C, 24 hours, resa time 4 hours. The essentials:
as §7

Series [6] has as its system Rhizomucor miehei IHEM13391. Put plainly: Antifungal activity in vitro (resazurin susceptibility screen), Inf. K. Type of series: cell-based. Particulars: Rhizomucor miehei, IHEM13391, Rhizomucor miehei IHEM13391; 37 °C, 48 hours, resa time 17 hours. The gist of the method: as §7
The subject of series [7] is Aspergillus fumigatus B42928. The series is described as follows: Antifungal activity in vitro (resazurin susceptibility screen), Inf. E. Type of series: cell-based. The conditions noted are these: Aspergillus fumigatus, B42928, Aspergillus fumigatus B42928; 27 °C, 48 hours, resa time 17 hours. The gist of the method:
as §7

For the next series, the system named is Microsporum canis B68128. Put plainly: Antifungal activity in vitro (resazurin susceptibility screen), Inf. B. The format is cell-based. The conditions noted are these: Microsporum canis, B68128, Microsporum canis B68128; 27 °C, 9 days, resa time 24 hours. The gist of the method:
as §7

Series [8] concerns Trichophyton rubrum B68183. Put plainly: Antifungal activity in vitro (resazurin susceptibility screen), Inf. C. Type of series: cell-based. The conditions noted are these: Trichophyton rubrum, B68183, Trichophyton rubrum B68183; 27 °C, 7 days, resa time 24 hours. The gist of the method:
as §7

The test system of series [9] is Trichophyton mentagrophytes B70554. Put plainly: Antifungal activity in vitro (resazurin susceptibility screen), Inf. G. The format is cell-based. Particulars: Trichophyton mentagrophytes, B70554, Trichophyton mentagrophytes B70554; 27 °C, 7 days, resa time 24 hours. The essentials: as §7
Series [10] relates to Scedosporium apiospermum IHEM3817. Put plainly: Antifungal activity in vitro (resazurin susceptibility screen), Inf. H. Type of series: cell-based. Particulars: Scedosporium apiospermum, IHEM3817, Scedosporium apiospermum IHEM3817; 37 °C, 48 hours, resa time 17 hours. The essentials: as §7
Series [11] concerns Scedosporium prolificans IHEM21157. Put plainly: Antifungal activity in vitro (resazurin susceptibility screen), Inf. I. The format is cell-based. Particulars: Lomentospora prolificans, 37 °C, 48 hours, resa time 17 hours. The gist of the method:
as §7

Series [12] relates to Mucor circinelloides IHEM21105. Put plainly: Antifungal activity in vitro (resazurin susceptibility screen), Inf. L. Type of series: cell-based. The conditions noted are these: 27 °C, 48 hours, resa time 17 hours. The gist of the method: as §7
Another series relates to Rhizopus oryzae IHEM5223. Put plainly: Antifungal activity in vitro (resazurin susceptibility screen), Inf. J. The conditions noted are these: Rhizopus arrhizus, 37 °C, 24 hours, resa time 6 hours. The format is cell-based. The essentials:
as §7

Series [13] has as its system Candida parapsilosis B66126. The series is described as follows: Antifungal activity in vitro (resazurin susceptibility screen), Inf. D. Type of series: cell-based. Particulars: Lodderomyces parapsilosis, B66126, Candida parapsilosis B66126; 37 °C, 24 hours, resa time 4 hours. The gist of the method:
as §7

Take `CN(C/C=C/C#CC(C)(C)C)Cc1cccc2ccccc12` [Terbinafine, reference compound]: the “semi-quantitative lesion score (mean)” value worked out at 0 in series [1] (3 DPI); 0 in [1] (5 DPI); 0.08 in series [1] (7 DPI); 0.33 in [1] (10 DPI); 0.80 in series [1] (12 DPI); 0.75 in series [1] (14 DPI). Also, the “semi-quantitative lesion score (mean)” value in series [1] (17 DPI) is reported as 0.50; in series [1] (20 DPI), 0.42. Further, the bioavailability – broadly, dose-corrected exposure relative to a reference, in per cent – in [2] (po, 10 mg/kg) was 14%; in the series “in vivo” (10 mg/kg) it was 19%.

For `CCc1ccc(C2=NCc3ccc(Cl)cc3-n3cccc32)cc1` [drawing 29], the solubility (commonly the dissolved amount per volume that the medium holds) is less than 1 µg/mL in series [3] (pH 4, aqueous buffer, buffer pH 4, ambient temperature, read-out: Solubility, buffer system B); 48 µg/mL (≈ 150 µM) in series [3] (pH 4, aqueous with cosolvent or surfactant or cyclodextrin, buffer pH 4, containing 10% (w/v) of HPBCD, read-out: Solubility, buffer system C); 1490 µg/mL (≈ 4640 µM) in series [3] (pH 4, aqueous with cosolvent or surfactant or cyclodextrin, buffer pH 4, containing 20% (w/v) of HPBCD, read-out: Solubility, buffer system D); less than 1 µg/mL in series [3] (pH 7.4, aqueous buffer, buffer pH 7.4, ambient temperature, read-out: Solubility, buffer system E); 35 µg/mL (≈ 109 µM) in series [3] (pH 7.4, aqueous with cosolvent or surfactant or cyclodextrin, buffer pH 7.4, containing 10% (w/v) of HPBCD, read-out: Solubility, buffer system F); 110 µg/mL (≈ 343 µM) in [3] (pH 7.4, aqueous with cosolvent or surfactant or cyclodextrin, buffer pH 7.4, containing 20% (w/v) of HPBCD, read-out: Solubility, buffer system G). Moreover, in series [3] (simulated gastric fluid, 0.01 N HCl, ambient temperature, read-out: Solubility, buffer system A), the solubility was 1880 µg/mL (≈ 5850 µM).

For the compound `CCc1ccc(C2=NCc3ccc(Cl)cc3-n3cccc32)cc1` [Compound 23 of WO02/34752, reference compound], the bioavailability in series [2] (PO 40 mg/kg, IV 2.5 mg/kg, read-out: Bioavailability in guinea pigs) was 7%.

On to `CCc1ccc(C2=NCc3c(Cl)cccc3-n3cccc32)cc1` [Compound 22 of WO02/34752, reference compound], for which the bioavailability in series [2] (po) worked out at 2.7%; in the series “in vivo” (10 mg/kg), 11%.

Take `CC(F)(F)c1ccc(C2=NCc3c(Cl)cc(Cl)cc3-n3cccc32)cc1` [Compound 9, 7,9-dichloro-4-[4-(1,1-difluoroethyl)phenyl]-6H-pyrrolo[1,2-a][1,4]benzodiazepine]: the IC50 (usually the concentration that inhibits the measured activity by half) in series [4] was 11 µM; in series [5], 0.871 µM; in series [6], more than 64.6 µM; in series [7], 7.94 µM; in the series on Microsporum canis B68128, 3.98 µM; in series [8], 1 µM. Besides, the half-inhibitory concentration (IC50) is 12.9 µM in series [9]; 9.55 µM in series [10]; 6.03 µM in series [11]; more than 64.6 µM in series [12]; more than 64.6 µM in the series with Rhizopus oryzae IHEM5223; more than 64.6 µM in series [13]. In addition, the “Bioavailability in guinea pigs (result in words)” value in series [2] was “Bioavailability in guinea pigs: not soluble”. The compound further gave a bioavailability in “in vivo” of 100%.

With `CC(F)(F)c1ccc(C2=NCc3ccc(Cl)cc3-n3cccc32)cc1` [Compound 17, 9-chloro-4-[4-(1,1-difluoroethyl)phenyl]-6H-pyrrolo[1,2-a][1,4]benzodiazepine], the melting point (usually the temperature, or range, at which the solid turns liquid) is 115.3 °C (dec.). For the same compound, in [4], the midpoint of inhibition, the IC50, lay at 5.62 µM. In series [5], this compound gave a half-inhibitory concentration (IC50) of 0.324 µM. In [6], this compound showed an IC50 of more than 64.6 µM. In series [2] (po, 10 mg/kg), the bioavailability came out at 70%. In [7], this compound showed a half-inhibitory concentration (IC50) of 0.55 µM. In the series with Microsporum canis B68128, this compound had an IC50 of 2.63 µM. Also, the IC50 in series [8] was 0.457 µM. Besides, in series [9], inhibition was half-maximal at 1.62 µM (IC50). This compound showed an IC50 in series [10] of more than 64.6 µM. In [11], half-maximal inhibition (IC50) was put at 0.759 µM. This compound also gave an IC50 in [12] of more than 64.6 µM. The compound further had an IC50 with Rhizopus oryzae IHEM5223 of 8.32 µM. Further, the half-inhibitory concentration (IC50) in [13] was 2.45 µM.

These data come from patent publication US9637490B2, “Antifungal 5,6-dihydro-4-[(difluoroethyl)phenyl]-4H-pyrrolo[1,2-α][1,4]benzodiazepine and 4-(difluoroethyl)phenyl-6H-pyrrolo[1,2-α][1,4]benzodiazepine derivatives” (Janssen Pharmaceutica NV, priority 2010, dated 2017).
